Reference: article PMC7069944, “Amino acid levels determine metabolism and CYP450 function of hepatocytes and hepatoma cell lines” (Nature Communications, 2020)
Several values for one entry are separate records, joined by “and”; a condition that tells them apart may be missing. Identical values can stand only once.

What was measured:
CYP3A4 [1] = assay: qRT-PCR CYP3A4 expression in HLCs; type: cell-based, human; conditions: HLCs in AA3 medium with or without 2% of the single amino acid or mix; Figure 4B
Protocol: (§1) AA supplementation was accomplished through the addition of MEM Non-Essential Amino Acids Solution (100 × ) and MEM Amino Acids Solution (50 × ) (Thermo Scientific) to the culture medium. For AA1, AA2, and AA3 medium, we added respectively 2 ml, 8 ml, and 16 ml of non-essential AA solution and 1 ml, 4 ml, and 8 ml of essential AA solution per 100 ml of LDM, with or without glucose. Culture medium was then made PH neutral through the addition of NaOH. […] PSC derived HLCs were differentiated in LDM until D12. AA supplementation (AA1, AA2 and AA3) was performed from day 12 until day 20, 30 or 40 of differentiation. […] HepG2, HUH7.5, Hep3B, HHL5, and HEK293 cells were maintained in DMEM supplemented with 10% fetal bovine serum as shown in Supplementary Table 4. AA supplementation consisted of addition of 16 ml of non-essential AA mix and 8 ml of essential AA mix per 100 ml of medium and a further addition of 20 g/l of any of the single AAs. Hepatoma cell lines were plated in normal culture medium, with addition of AA3 + 20 g/l AA once cells reached 60% confluency, and this for 3 or 7 additional days of culture. PHHs were maintained in a medium composition that was based on WE as detailed in ref. [67].
RNA extraction was performed using the GenElute Mammalian Total RNA Miniprep Kit (Sigma-Aldrich). Then, genomic DNA was eliminated using the On-Column DNase I Digestion kit (Sigma-Aldrich). […]

CYP3A4 [2] = assay: qRT-PCR CYP3A4 expression in HepG2; type: cell-based, human
Protocol: as §1, with “Hepatoma cell lines were plated in normal culture medium, with addition of AA3 + 20 g/l AA once cells reached 60% confluency, and this for 3 or 7 additional days of culture.” left out
RNA extraction was performed using the GenElute Mammalian Total RNA Miniprep Kit (Sigma-Aldrich). Then, genomic DNA was eliminated using the On-Column DNase I Digestion kit (Sigma-Aldrich). Last, 1 µg of RNA was transcribed to cDNA using the Superscript III First-Strand synthesis (Invitrogen). Gene expression analysis was performed using the Platinum SYBR green qPCR supermix-UDG kit (Invitrogen) in a ViiA 7 Real-Time PCR instrument (Thermo Scientific, Waltham, MA). The sequences of all used qRT-PCR primers are listed in Supplementary Table 6. Of these, ribosomal protein L19 (RPL19) was used as a housekeeping gene for normalization.

CYP3A4 [3] = conditions: HepG2 in AA3+GLY medium with rapamycin
Protocol: Protein amount was measured using a pierce BCA protein assay kit (Thermo Scientific).

SMILES | relative CYP3A4 expression (compared to LDM 2% DMSO D20) (CYP3A4 [1]) | Relative CYP3A4 expression (CYP3A4 [2]; single amino acid supplementation, relative to CTL (CTL values equal HepG2 D7 CTL)) | effect on AA-mediated induction of CYP3A4 (CYP3A4 [3]) | Relative CYP3A4 expression (CYP3A4 [2]; HepG2 AAGLY D30 with RAPA)
CC(C)[C@H](N)C(=O)O [VAL, valine] | 50.8533 and 59.0748 and 76.4937 | 39.34 and 55.9446 and 51.9815 |  | 
CO[C@H]1C[C@@H]2CC[C@@H](C)[C@@](O)(O2)C(=O)C(=O)N2CCCC[C@H]2C(=O)O[C@H]([C@H](C)C[C@@H]2CC[C@@H](O)[C@H](OC)C2)CC(=O)[C@H](C)/C=C(\C)[C@@H](O)[C@@H](OC)C(=O)[C@H](C)C[C@H](C)/C=C/C=C/C=C/1C [rapamycin] |  |  | blocked the induction of CYP3A4 | 1.244 and 1.301 and 1.514
